Results on 6 molecules are retold here after patent US12304970B2, “Nuclear localization signals, compositions formed therefrom, and methods of use thereof for delivery of cargo to the nucleus” (Yale University, priority 2018, dated 2025).

The subject of assay [1] is DLD1 colon cancer cells. In words: Protein L immunostain of variant 13 nuclear penetration with nuclear import inhibitors, DLD1 cells. The following applies: 10 μM variant 13 co-incubated with 0, 10, 25, or 50 μM inhibitor. The class given is cell-based. The method, then:
(§1) For all experiments, cells were cultivated overnight to allow for attachment, followed by pretreatment with either control medium (absence of inhibitor), or medium containing inhibitor for durations previously-reported in the literature (see Table 1, below).
(§2) For endocytosis inhibition experiments, cells were cultivated in serum-free medium containing 1% v/v BSA to deplete endogenous serum levels. Following preincubation with inhibitors, cells were treated with either control medium or 10 μM variant 13, and the same dose of small molecule inhibitor for a further 30 minutes. For all experiments, cells were washed thrice, followed by immediate fixation with pre-chilled ice-cold ethanol. Subsequently, treated cells were probed using a protein L immunodetection approach to probe variant 13 nuclear uptake (Rattray et al., Biochem Biophys Res Commun 496, 858-864 (2018)). All monolayers were immediately imaged following color development on an Evos Fl microscope.
(§3) DLD-1 and A549 cells were treated with 10 μM variant 13 co-incubated with 0, 10, 25, or 50 μM concentrations of ivermectin. Relative intensity of protein L nuclear staining as compared to amount of stain in cells treated without ivermectin was also quantified by ImageJ.
(§4) DLD-1 cells and A549 cells were treated with 10 μM variant 13 co-incubated with 0, 10, 25, or 50 μM concentrations of importazole and then immunostained for protein L.
(§5) DLD-1 cells and A549 cells were treated with 10 μM variant 13 co-incubated with 0, 10, 25, or 50 μM concentrations of mifepristone and then immunostained for protein L.

The test system of assay [2] is DLD1 cells. In words: SLE sera nuclear import with nuclear import inhibitors. Type of assay: cell-based. Particulars: pre- and co-treatment with inhibitor. How it is done: DLD1 cells were pre-treated with either control media, or media containing nuclear import inhibitors for four hours. Subsequent co-treatment with inhibitor and patient SLE serum (diluted 1:50) was performed for one hour at 37° C. Following treatment, cells were fixed, blocked and probed with an alkaline-phosphatase anti-human IgG primary antibody overnight (Fisher Scientific). Cell monolayers were washed, and color developed using NBT/BCIP reagent (Fisher Scientific) for the same duration across all experiments. Following chromogen color development, all monolayers were washed, and brightfield images acquired immediately on an Evos Fl microscope.

In assay [3] the test system is A549 lung cancer cells. In words: Protein L immunostain of variant 13 nuclear penetration with nuclear import inhibitors, A549 cells. The following applies: 10 μM variant 13 co-incubated with 0, 10, 25, or 50 μM inhibitor. Type of assay: cell-based. The method, then: as §1, §2, §3, §4, §5
Assay [4] concerns DLD1 cancer cells. Description: Uptake of rhodamine-labeled variant 13 into live DLD1 cells. Type of assay: cell-based. Particulars: 50 μM importazole. How it is done:
Live DLD1 cancer cells were treated with control or rhodamine-labeled variant 13 (Rh-variant 13)+/−50 μM importazole and were then visualized under light and fluorescence microscopy.

Assay [5] concerns cell nuclei. Particulars: known anti-DNA autoantibodies; cited from earlier work.
In assay [6] the test system is DLD1 cells. Description: Nuclear penetration of scleroderma autoantibody SSC and effect of ivermectin. The class given is cell-based. The source says: In addition to SLE, cell-penetrating autoantibodies are detected in other autoimmune diseases such as scleroderma. […] SSC was expressed in and purified from HEK293T cells. […] Ivermectin inhibited the nuclear uptake of SSC, confirming that ivermectin can modulate the nuclear-penetrating activity of autoantibodies from multiple autoimmune diseases.

In assay [7] the test system is MCF7 breast cancer cells. In words: Uptake of rhodamine-labeled variant 13 into live MCF7 cells. The class given is cell-based. The following applies: 50 μM ivermectin. The method, then:
Live MCF7 breast cancer cells were treated with control or rhodamine-labeled variant 13 (Rh-variant 13)+/−50 μM ivermectin and were then visualized under light and fluorescence microscopy. Ivermectin inhibited cellular/nuclear uptake of Rh-variant 13.

The test system of assay [8] is cell nuclei. In words: Nuclear penetration of humanized 3E10 variants compared with 3E10 (D31N) di-scFv. Type of assay: cell-based. The following applies: for Nuclear localizing?: humanized 3E10 variants. The source says: A range of humanized 3E10 variants were generated with subtle differences in framework and CDR sequences.
The target in assay [9] is T1, Importin-β1 (KPNB1) (Homo sapiens, UniProt Q14974).
T1 construct: endogenous in cells; host or cells: DLD1 cells
T1 sequence (Q14974 whole entry): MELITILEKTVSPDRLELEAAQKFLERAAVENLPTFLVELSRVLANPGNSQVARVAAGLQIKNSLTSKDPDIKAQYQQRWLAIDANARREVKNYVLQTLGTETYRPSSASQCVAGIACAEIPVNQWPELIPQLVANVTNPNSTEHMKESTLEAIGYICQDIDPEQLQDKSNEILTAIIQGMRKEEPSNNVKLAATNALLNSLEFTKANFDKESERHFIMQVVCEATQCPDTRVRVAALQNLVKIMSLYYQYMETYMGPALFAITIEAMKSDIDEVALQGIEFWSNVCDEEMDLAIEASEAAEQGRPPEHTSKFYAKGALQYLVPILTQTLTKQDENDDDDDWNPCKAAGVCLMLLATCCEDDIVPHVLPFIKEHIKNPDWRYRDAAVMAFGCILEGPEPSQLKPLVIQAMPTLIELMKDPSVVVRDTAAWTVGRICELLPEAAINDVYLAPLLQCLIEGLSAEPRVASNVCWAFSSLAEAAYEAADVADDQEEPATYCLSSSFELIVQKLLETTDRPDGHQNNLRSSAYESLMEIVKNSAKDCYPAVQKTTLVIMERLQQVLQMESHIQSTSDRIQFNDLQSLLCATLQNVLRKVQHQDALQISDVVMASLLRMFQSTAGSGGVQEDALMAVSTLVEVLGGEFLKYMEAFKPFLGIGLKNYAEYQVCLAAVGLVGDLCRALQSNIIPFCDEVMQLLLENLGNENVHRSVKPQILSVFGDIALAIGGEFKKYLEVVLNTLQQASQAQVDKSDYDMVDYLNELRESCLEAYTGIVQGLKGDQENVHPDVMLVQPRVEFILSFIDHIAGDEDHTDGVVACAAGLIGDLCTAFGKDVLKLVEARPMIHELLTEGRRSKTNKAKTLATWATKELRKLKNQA
Description: Variant 13 nuclear penetration after siRNA knockdown of importin β1 in DLD1 cells. Type of assay: cell-based. The following applies: 10 μM variant 13 for 30 minutes, n=100 cells per treatment. How it is done:
Importin-β1 (KPNB1) knockdown in DLD1 cells were generated using control (D-001206-14-05) and KPNB1 (importin β1, M-017523-01-0005) siRNA (Dharmacon). DLD1 cells were seeded into 24-well (western blot) or 96-well plates (cell penetration assays) overnight. Cell monolayers were transfected with siRNA, followed by media replacement at 24 hours, and evaluation at multiple time points post-transfection. Importin (31 expression was then evaluated by western blotting of cell lysates.
Knockdown of importin β1 in DLD1 cells by siRNA was next performed to further probe the role of this pathway in modulating variant 13 nuclear localization.

Entries after “also recorded” stand apart in the source; their conditions may differ. Where two headings read alike, the source gives them in different places.

Regarding `CC(Nc1nc(N2CCCC2)nc2ccccc12)c1ccccc1` (stereo not drawn) [importazole], the “nuclear penetration by variant 13” value in [1] and in [3] was “reduction” throughout. Moreover, the “nuclear uptake of ANAs in SLE-19” value in assay [2] was “inhibit nuclear uptake of ANAs in SLE-19 in a dose-dependent manner”. Moreover, the “nuclear uptake of rhodamine-labeled variant 13” value in assay [4] is on record as “inhibited”.

As for `CC#C[C@]1(O)CC[C@H]2[C@@H]3CCC4=CC(=O)CCC4=C3[C@@H](c3ccc(N(C)C)cc3)C[C@@]21C` [mifepristone], the “nuclear penetration by variant 13” value in assay [1] and in assay [3] was “reduction” each time. Also, the “nuclear uptake of ANAs in SLE-19” value in [2] is reported as “inhibit nuclear uptake of ANAs in SLE-19 in a dose-dependent manner”.

On to “3E10: murine lupus anti-DNA monoclonal antibody produced by ATCC Accession No. PTA 2439 hybridoma [Variant 3E10]”, for which the “Nuclear localizing?” value in [5] is recorded as “Yes”.

As to ivermectin, the “nuclear penetration by variant 13” value in assay [1] and in [3] was “dose-dependent reduction” throughout. Also, the “nuclear uptake of SSC” value in [6] is given as “inhibited”. For the same molecule, the “nuclear staining / nuclear uptake of ANAs in SLE-4, 8, 9, and 19” value in [2] (serum diluted 1:50) was “reduced the nuclear staining; also recorded: blocked”. In assay [7], the “cellular/nuclear uptake of rhodamine-labeled variant 13” value was “inhibited”.

B1: variant 10: humanized 3E10 variant, SEQ ID NOS: 14, 22, and 32 (protein)
chain 1: EVQLVESGGGLVQPGGSLRLSCAASGFTFSNYGMHWVRQAPGKGLEWVSYISSSSSTIYYADSVKGRFTISRDNAKNSLYLQMNSLRAEDTAVYYCARRGLLLDYWGQGTTVTVSS
chain 2: DIQMTQSPSSLSASVGDRVTITCRASKSVSTSSYSYMHWYQQKPGKAPKLLIKYASYLESGVPSRFSGSGSGTDFTLTISSLQPEDFATYYCQHSREFPWTFGQGTKVEIK
chain 3: DIQMTQSPSSLSASVGDRVTITCRASKSVSTSSYSYMHWYQQKPGKAPKLLIKYASYLESGVPSRFSGSGSGTDFTLTISSLQPEDFATYYCQHSREFPWTFGQGTKVEIKRADAAPGGGGSGGGGSGGGGSEVQLVESGGGLVQPGGSLRLSCAASGFTFSNYGMHWVRQAPGKGLEWVSYISSSSSTIYYADSVKGRFTISRDNAKNSLYLQMNSLRAEDTAVYYCARRGLLLDYWGQGTTVTVSSASTKGPSVFPLAPLESSGSDIQMTQSPSSLSASVGDRVTITCRASKSVSTSSYSYMHWYQQKPGKAPKLLIKYASYLESGVPSRFSGSGSGTDFTLTISSLQPEDFATYYCQHSREFPWTFGQGTKVEIKRADAAPGGGGSGGGGSGGGGSEVQLVESGGGLVQPGGSLRLSCAASGFTFSNYGMHWVRQAPGKGLEWVSYISSSSSTIYYADSVKGRFTISRDNAKNSLYLQMNSLRAEDTAVYYCARRGLLLDYWGQGTTVTVSS
Take B1: in assay [8], the “nuclear penetration compared to murine 3E10 (D31N) di-scFv prototype” value is reported as “penetrated nuclei very well” and the “Nuclear localizing?” value is given as “Yes”.

B2: variant 13: humanized 3E10 variant, SEQ ID NOS: 17, 23, and 35, expressed in CHO cells (protein)
chain 1: EVQLVESGGGLVQPGGSLRLSCAASGFTFSNYGMHWVRQAPGKGLEWVSYISSGSSTIYYADSVKGRFTISRDNAKNSLYLQMNSLRAEDTAVYYCARRGLLLDYWGQGTTVTVSS
chain 2: DIQMTQSPSSLSASLGDRATITCRASKTVSTSSYSYMHWYQQKPGQPPKLLIKYASYLESGVPSRFSGSGSGTDFTLTISSLQPEDAATYYCQHSREFPWTFGGGTKVEIK
chain 3: DIQMTQSPSSLSASLGDRATITCRASKTVSTSSYSYMHWYQQKPGQPPKLLIKYASYLESGVPSRFSGSGSGTDFTLTISSLQPEDAATYYCQHSREFPWTFGGGTKVEIKRADAAPGGGGSGGGGSGGGGSEVQLVESGGGLVQPGGSLRLSCAASGFTFSNYGMHWVRQAPGKGLEWVSYISSGSSTIYYADSVKGRFTISRDNAKNSLYLQMNSLRAEDTAVYYCARRGLLLDYWGQGTTVTVSSASTKGPSVFPLAPLESSGSDIQMTQSPSSLSASLGDRATITCRASKTVSTSSYSYMHWYQQKPGQPPKLLIKYASYLESGVPSRFSGSGSGTDFTLTISSLQPEDAATYYCQHSREFPWTFGGGTKVEIKRADAAPGGGGSGGGGSGGGGSEVQLVESGGGLVQPGGSLRLSCAASGFTFSNYGMHWVRQAPGKGLEWVSYISSGSSTIYYADSVKGRFTISRDNAKNSLYLQMNSLRAEDTAVYYCARRGLLLDYWGQGTTVTVSS
In the case of B2, in assay [8], the “nuclear penetration compared to murine 3E10 (D31N) di-scFv prototype” value is given as “penetrated nuclei very well” and the “Nuclear localizing?” value is given as “Yes”. Moreover, in assay [9], the “variant 13 nuclear signal in importin β1 knockdown cells compared to cells with intact importin β1” value is “significant reduction”.
